We go through four molecules from US20040248837A1, “Methods of treating pulmonary fibrotic disorders” (priority 2002, published 2004).

The test system of one series is ITGβ6. As to the kind of experiment: ITGβ6 (β6 integrin) gene transcription in lung tissue, RT-PCR. The format is in vivo, C57BL/6 mice. Conditions: B6 mice, i.v., 24 hrs; Pam3Cys 25 μg, polyI:C 25 μg, LPS 5 μg, TOG 2 mg, R848 18 μg, ISS 20 μg. As for the experimental part: Twenty μg ISS was injected intravenously (i.v.) into C57BL/6 mice. At 0 hours, 2 hours, 4 hours, 8 hours, 16 hours, and 24 hours after injection, mice were killed and total RNA was isolated from lung. Transcription levels of IGFβ6 (β6 integrin) was analyzed by reverse transcription-polymerase chain reaction (RT-PCR). TNFα, IDO (2,3-indoleaminedioxygenase) and TGFβ1 were used as controls. […] Transcription of the other subunit of ITGαvβ6 (or αvβ6 integrin), i.e., ITGαv, was also analyzed by RT-PCR.
The long-term effect of ISS on gene expression in lung tissue was investigated. Twenty μg ISS was injected i.v. into C57 BL/6 mice. At 0 days, 1 day, 2 days, 3 days, 4 days, and 5 days post injection, mice were killed and total RNA was isolated from lung tissue. Transcription levels were analyzed by RT-PCR. […] The suppression of TGF-β activity was observed indirectly by the induction of MMP-12 (elastase) gene. Under normal conditions, MMP-12 expression is suppressed by TGF-β. […] In contrast, no change in mRNA levels of MMP-9 (gelatinase) was observed.
The kinetics of suppression of gene expression by ISS was analyzed. […] The level of ITGαv mRNA dropped to 20% of the initial levels within 30 minutes after i.v. injection of ISS.
MyD88 is a component of the TLR signaling pathway. It was shown that down-regulation of ITGβ6 gene transcription by ISS in lung tissue is dependent on MyD88. ISS suppressed ITGβ6 gene transcription in normal control mice, but not in MyD88^−/− mice.
Suppression of ITGβ6 gene transcription in lung tissue by a variety of TLR ligands was examined. Six different TLR ligands (Pam3Cys, 25 μg; polyI:C, 25 μg; LPS, 5 μg; TOG, 2 mg; R848, 18 μg; and ISS, 20 μg) were individually injected i.v. into B6 mice. After 24 hrs, mice were sacrificed and total RNA was isolated form lung tissue, and the level of ITGβ6 gene transcription in lung tissue was analyzed by RT-PCR. Each TLR agonist inhibited ITGβ6 gene transcription in lung tissue.

The subject of series [1] is mice repetitively challenged with OVA. The series can be described thus: Airway responsiveness to MCh in vivo (Penh, whole body plethysmograph). The conditions noted are these: pilot experiments. Details: species or system BALB/c mice. The method, then: Female BALB/c mice (16 mice/group) (The Jackson Laboratory, Bar Harbor, Me.) were used when they reached 8-10 wk of age. Mice were immunized s.c. on days 0, 7, 14, and 21 with 25 μg of OVA (OVA, grade V; Sigma) adsorbed to 1 mg of alum (Aldrich) in 200 μl normal saline. Intranasal OVA challenges (20 ng/50 μl in PBS) were administered on days 27, 29 and 31 under isoflurane (Vedco, Inc. St Joseph, Mo.) anesthesia. Intranasal OVA challenges were then repeated twice a week for 1, 3, or 6 months (see FIG. 1 for protocol). Age and sex matched control mice were sensitized but not challenged with OVA during the 1, 3, or 6 month study. Mice were sacrificed 24 hours after the final OVA challenge and bronchoalveolar lavage fluid and lungs were analyzed. […]
Airway responsiveness was assessed 24 hrs after the final OVA challenge (after 1, 3, or 6 months of repetitive OVA challenges), using a single chamber whole body plethysmograph obtained from Buxco (Troy, N.Y.), as previously described in this laboratory. […] The enhanced pause (Penh) correlates closely with pulmonary resistance measured by conventional two-chamber plethysmography in ventilated mice. […] The Penh values measured during each 3-min sequence were averaged and are expressed for each MCh concentration as the percentage of baseline Penh values following PBS exposure (Broide et al. supra).

For series [2] the test system is unchanged. The series can be described thus: Quantification of airway remodeling (pilot experiments). It is filed as in vivo, BALB/c mice. The method, then:
(§1) Female BALB/c mice (16 mice/group) (The Jackson Laboratory, Bar Harbor, Me.) were used when they reached 8-10 wk of age. Mice were immunized s.c. on days 0, 7, 14, and 21 with 25 μg of OVA (OVA, grade V; Sigma) adsorbed to 1 mg of alum (Aldrich) in 200 μl normal saline. Intranasal OVA challenges (20 ng/50 μl in PBS) were administered on days 27, 29 and 31 under isoflurane (Vedco, Inc. St Joseph, Mo.) anesthesia. Intranasal OVA challenges were then repeated twice a week for 1, 3, or 6 months (see FIG. 1 for protocol). Age and sex matched control mice were sensitized but not challenged with OVA during the 1, 3, or 6 month study. Mice were sacrificed 24 hours after the final OVA challenge and bronchoalveolar lavage fluid and lungs were analyzed.
Different groups of mice (16 mice/group) were administered i.p. endotoxin-free (<1 ng/mg DNA) phosphorothioate ISS-ODN (5′-[…]-3′; SEQ ID NO:01) (Trilink, San Diego, Calif.) (100 μg in 100 μl of sterile, endotoxin-free PBS), M-ODN (5′-[…]-3′; SEQ ID NO:02) which lacks the CpG motif present in ISS, or diluent control starting 1 day before the first intranasal OVA challenge on day 27, and then continuing every other week 1 day before intranasal challenges for 1, 3, or 6 months. […]

For series [3] the test system is unchanged. Conditions: previous studies in our laboratory; administered 1 day before OVA challenge; cited from earlier work.
For series [4] the test system is unchanged. The series can be described thus: BAL eosinophil counts. It is filed as in vivo, BALB/c mice. The conditions noted are these: pilot experiments. The method, then:
as §1
Throughout the Examples, therapeutic nucleic acids are referred to as “ISS.” ISS or diluent control was administered intraperitoneally (i.p.) starting 1 day before the first intranasal OVA challenge on day 26, and then continued every other week 1 day before intranasal challenges for 1, 3, or 6 months (see FIG. 1). All animal experimental protocols were approved by the University of California, San Diego Animal Subjects Committees. […]

On to `Nc1nc2c(sc(=O)n2[C@@H]2O[C@H](CO)[C@@H](O)[C@H]2O)c(=O)[nH]1` [TOG, 7-thia-8-oxo-guanosine], for which, in the series with ITGβ6, the “ITGβ6 gene transcription in lung tissue” value is “inhibited”. “M-ODN: 5′-TGACTGTGAAGGTTGGAGATGA-3′ (SEQ ID NO:02), which lacks the CpG motif present in ISS (DNA, backbone and methylation of C not given here)”: the “OVA induced airway responsiveness” value in series [1] is on record as “did not inhibit”. Besides, the “features of airway remodeling” value in series [2] is “did not inhibit”. For the same molecule, the “OVA induced airway hyperreactivity” value in series [3] is reported as “not”. Besides, the “OVA induced eosinophilic inflammation” value in series [4] is “did not inhibit”.

In the case of polyI:C, the “ITGβ6 gene transcription in lung tissue” value with ITGβ6 is reported as “inhibited”.

On to “tripalmitoyl-S-glyceryl cysteine [Pam3Cys]”, for which the “ITGβ6 gene transcription in lung tissue” value in the series on ITGβ6 is given as “inhibited”.
